Assay results: PMC6264190, “Interaction of α-Melanocortin and Its Pentapeptide Antisense LVKAT: Effects on Hepatoprotection in Male CBA Mice” (Molecules, 2011)
“Also recorded” adds a separate entry of the source.

How the values were obtained:
LVKAT = experiment: Tryptophan fluorescence spectrofluorometric titration of sense peptides with antisense peptide LVKAT; assay type: binding
Procedure: Tryptophan fluorescence was used to detect binding of antisense pentapeptide LVKAT to the central binding region of α-MSH molecule. […] One was attributed to α-MSH and the other to its complex with antisense pentapeptide LVKAT. […] Consequently, the proposed model is given by Equation (1) and Equation (2), where Kd is the dissociation constant of the complex: […]
SENSE - LVKAT ⇄ SENSE + LVKAT(1)
(§1) Figure 2 A typical titration of 2.5 µM solution of α-MSH (sense) with LVKAT (antisense) at 25 °C, pH = 7.4, 10 mM phosphate buffer. The concentration of LVKAT was varied from 50 to 750 μM. Fluorescence units (f.u.) are given as a ratio of signals obtained from sample and reference PMTs. Inset: Fitting curve at 360 nm according to the Equation (1) and Equation (2).
as §1, with “Figure 3” for “Figure 2”, “of 25” for “of 2.5”, “of EHFRW” for “of α-MSH”, “to 500 µM.” for “to 750 μM.”
Fluorescence spectra were measured at 25 °C by OLIS RSM 1000F spectrofluorimeter (Olis, Bogart, GA, USA) equipped with thermostatted cell holder. […] Data obtained from the titrations were analyzed with the Specfit software package.

antibody to L-α-MSH = conditions: ref [15],[16]; cited from earlier work
[1] = test system: acetaminophen (APAP)-induced liver lesions in male CBA mice; experiment: Histopathological grading of acetaminophen (APAP)-induced liver lesions; assay type: in vivo; conditions: mean ± SD; acetaminophen 150 mg/kg i.g.; α-MSH 2.5 mg/kg, LVKAT 0.8 mg/kg or their equimolar mixture i.p. 1 hour before; scored at 24 hours; 0 = no lesions, 5 = severe; group size 6-8; untreated controls 4.8 ± 0.46; α-MSH p < 0.05, LVKAT and mixture p > 0.05 vs controls
Procedure: (§2) Experimental animals were male CBA mice, 12-16 weeks old, weighing 20-25 g and bred at the Ruđer Bošković Institute. Experiments were performed according to the ILAR Guide for the Care and Use of Laboratory Animals, Council Directive 86/609/EEC, and Croatian Animal Protection Act (Official Gazette 135/06). The animals were kept in a room with dark-light cycle (12h/12h) and constant temperature (22 ± 1 °C). Hepatotoxicity was induced according to the slightly modified procedure of Guarner et al.. To induce hepatic drug-metabolizing enzymes mice were given 0.3 g/L phenobarbitone-sodium (Kemika, Zagreb, Croatia) for 7 days. […] (Krka, Novo Mesto, Slovenia) 150 mg/kg was given intragastrically (i.g.), via a gastric tube, in a volume of 0.5 mL. […] Control animals were treated with saline (0.9% NaCl). The size of experimental groups was 6-8. Mice that spontaneously died were excluded from histopathological or biochemical analysis. […] However, the difference was not statistically significant.
(§3) Sections of the liver were fixed in 10% phosphate buffered formalin, embedded in paraffin, sectioned at 4 µm, and stained with hematoxilin and eosin. […] Alanine aminotransferase (ALT) and aspartate aminotransferase (AST) activity was determined from plasma by standard laboratory techniques. […]

[2] = test system: acetaminophen-induced hepatotoxicity in male CBA mice; experiment: Plasma alanine aminotransferase (ALT) activity 24 h after acetaminophen administration; assay type: in vivo; conditions: mean ± SD; 24 h after acetaminophen 150 mg/kg i.g.; α-MSH 2.5 mg/kg, LVKAT 0.8 mg/kg or their equimolar mixture i.p. 1 hour before; group size 6-8; untreated controls 10087 ± 9595; α-MSH significantly lower, LVKAT and mixture p > 0.05; normal animals 37.7 ± 7.7
Procedure: as §2, §3

[3] = test system: acetaminophen-induced hepatotoxicity in male CBA mice; experiment: Plasma aspartate aminotransferase (AST) activity 24 h after acetaminophen administration; assay type: in vivo; conditions: mean ± SD; 24 h after acetaminophen 150 mg/kg i.g.; α-MSH 2.5 mg/kg, LVKAT 0.8 mg/kg or their equimolar mixture i.p. 1 hour before; group size 6-8; untreated controls 6091 ± 4275; α-MSH significantly lower, LVKAT and mixture p > 0.05; normal animals 109.3 ± 25.3
Procedure: as §2, §3

male CBA mice = experiment: Spontaneous deaths in the acetaminophen hepatotoxicity model; assay type: in vivo; conditions: starting number eight per group; acetaminophen 150 mg/kg i.g.; α-MSH 2.5 mg/kg, LVKAT 0.8 mg/kg or equimolar mixture i.p.; none died in control; difference not statistically significant
Procedure: as §2

[4] = test system: acetaminophen induced hepatotoxicity; conditions: mouse model of acetaminophen induced hepatotoxicity; ref [15],[16]; cited from earlier work
From the text: Alpha-melanotropin (α-MSH) is an ancient, evolutionally conserved, tridecapeptide derived by the proteolytic cleavage from the pro-opiomelanocortin (POMC) hormone. It is currently the most widely studied melanocortin peptide in the context of tissue inflammation and cytoprotection. Recently, Turčić et al. […] Turčić et al. […] Sections of the liver were fixed in 10% phosphate buffered formalin, embedded in paraffin, sectioned at 4 µm, and stained with hematoxilin and eosin. Sections were examined by using light microscope, and grading of the liver lesions was done on 0-5 point scale according to Silva et al. (0 = no lesions, 1 = minimal, 2 = mild, 3 = moderate, 4 = marked and 5 = severe lesions). Alanine aminotransferase (ALT) and aspartate aminotransferase (AST) activity was determined from plasma by standard laboratory techniques. Plasma was sep ...

[5] = test system: hepatoprotective effects of α-MSH on the APAP induced hepatic lesions; experiment: Modulation of α-MSH hepatoprotection by antisense peptide in vivo (overall); set-up: species or system male CBA mice
Procedure: as §2, §3

| Substance | binding to LVKAT in fluorescence titration (in words) (LVKAT; same experimental conditions as for α-MSH (25 °C, pH = 7.4, 10 mM phosphate buffer)) | binding to antibody to L-α-MSH (antibody to L-α-MSH) | stoichiometry of complex with LVKAT (LVKAT; SVD analysis of fluorescence titration spectra, Specfit, no higher order complexes) [complex formation] | liver lesion score (scale 0-5) [1] | blood (plasma) alanine aminotransferase (ALT) [2] [U/L] | blood (plasma) aspartate aminotransferase (AST) [3] [U/L] | animals that died spontaneously (male CBA mice) | hepatoprotective effect (in words) [4] | effect of LVKAT alone (hepatoprotection, in words) ([5]; LVKAT 0.8 mg/kg i.p. 1 hour before acetaminophen 150 mg/kg i.g., p > 0.05 vs untreated controls) | effect on hepatoprotection by α-MSH (in words) ([5]; LVKAT given with α-MSH (equimolar) i.p. 1 hour before acetaminophen 150 mg/kg i.g., histopathology, ALT and AST) |
| --- | --- | --- | --- | --- | --- | --- | --- | --- | --- | --- |
| Ac-SYSMEHFRWGKPV-NH2 [D-α-MSH, D-enantiomer of α-MSH] | very weak (if any) binding | does not bind antibody to L-α-MSH |  |  |  |  |  |  |  |  |
| Ac-SYSMEHFRWGKPV-NH2 [α-MSH, tridecapeptide derived by the proteolytic cleavage from the pro-opiomelanocortin (POMC) hormone] |  |  | 1 to 1 | 2 ± 0.75 | 585.8 ± 1424 | 539.5 ± 459.6 | none of the animals died | strong and dose dependent hepatoprotective effects; also recorded: potent hepatoprotective effects |  |  |
| LVKAT [pentapeptide antisense to central region of α-MSH that serves as the pharmacophore for melanocortin receptors] |  |  |  | 5 ± 0 |  |  |  |  | not hepatoprotective per se | abolishes hepatoprotective effects of α-MSH |
